Reference: US7692030B2, “Conjugates of artemisinin-related endoperoxides and hydrazone derivatives for the treatment of cancer” (University of Washington, priority 2006, dated 2010)

Columns and labels:
Assay in all cases: NCI DTP human tumor cell line screen (SRB)
Format in all cases: cell-based
T-47D = details: Breast Cancer, 10 μM, 48 h
Protocol: (§1) Representative compounds of the invention, prepared as described in EXAMPLES 1-6, were submitted to the Developmental Therapeutics Program of the United States National Cancer Institute (NCl) to screen for anti-cancer activity. The anti-cancer activities of the six compounds were tested against approximately 60 human tumor cell lines representing leukemia, melanoma, and cancers of the lung, colon, breast, ovary, kidney, prostate, and brain. The following screening methodology was provided by the NCl. […] For experimental screens, cells were inoculated into 96 well microtiter plates in 100 μL at plating densities ranging from 5,000 to 40,000 cells/well depending on the doubling time of individual cell lines. After cell inoculation, the microtiter plates were incubated at 37° C., 5% carbon dioxide, 95% air and 100% relative humidity for 24 hours prior to addition of the compounds. After 24 hours of incubation, two plates of each cell line were fixed in situ with trichloroacetic acid (TCA) to represent a measurement of the cell population for each cell line at the time of compound addition (Tz). The compounds were solubilized in dimethyl sulfoxide at 400-fold the desired final maximum test concentration and stored frozen prior to use. At the time of drug addition, frozen aliquots of the compounds thawed and diluted with complete medium containing 50 μg/ml gentamicin. Aliquots of 100 μl of these different compound dilutions were added to the appropriate microtiter wells already containing 100 μl of medium, resulting in the required final compound concentration of 10 μM. Following compound addition, the plates were incubated for an additional 48 h at 37° C., 5% carbon dioxide, 95% air, and 100% relative humidity. For adherent cells, the assay was terminated by the addition of cold TCA. Cells were fixed in situ by the gentle addition of 50 μl of cold 50% (w/v) TCA (final concentration, 10% TCA) and incubated for 60 minutes at 4° C. The supernatant was discarded, and the plates were washed five times with tap water and air dried. Sulforhodamine B (SRB) solution (100 μl) at 0.4% (w/v) in 1% acetic acid was added to each well, and plates were incubated for 10 minutes at room temperature. After staining, unbound dye was removed by washing five times with 1% acetic acid and the plates were air dried. Bound stain was subsequently solubilized with 10 mM trizma base, and the absorbance was read on an automated plate reader at a wavelength of 515 nm. For suspension cells, the methodology was the same except that the assay was terminated by fixing settled cells at the bottom of the wells by gently adding 50 μl of 80% TCA (final concentration, 16% TCA). Using the three absorbance measurements [time zero, (Tz), control growth, (C), and test growth in the presence of compound (Ti)], the percentage growth was calculated at each of the compound concentrations levels. Percentage growth inhibition was calculated with the following algorithms: [(Ti−Tz)/(C−Tz)]×100 for concentrations for which Ti>/=Tz [(Ti−Tz)/Tz]×100 for concentrations for which Ti<Tz The results of the NCl in vitro anticancer screening with six compounds against various human tumor cell lines are presented below in Tables 2-7. […] The growth percent mean, delta, and range for each compound are given below.

MDA-MB-435 = details: Breast Cancer, 10 μM, 48 h
Protocol: as §1

HOP-62 = details: Non-Small Cell Lung Cancer, 10 μM, 48 h
Protocol: as §1

NCI-H460 = details: Non-Small Cell Lung Cancer, 10 μM, 48 h
Protocol: as §1

SK-MEL-2 = details: Melanoma, 10 μM, 48 h
Protocol: as §1

RPMI-8226 = details: Leukemia, 10 μM, 48 h
Protocol: as §1

PC-3 = details: Prostate Cancer, 10 μM, 48 h
Protocol: as §1

NCI-H226 = details: Non-Small Cell Lung Cancer, 10 μM, 48 h
Protocol: as §1

NCI-H23 = details: Non-Small Cell Lung Cancer, 10 μM, 48 h
Protocol: as §1

U251 = details: CNS Cancer, 10 μM, 48 h
Protocol: as §1

SNB-19 = details: CNS Cancer, 10 μM, 48 h
Protocol: as §1

SF-295 = details: CNS Cancer, 10 μM, 48 h
Protocol: as §1

MOLT-4 = details: Leukemia, 10 μM, 48 h
Protocol: as §1

HT29 = details: Colon Cancer, 10 μM, 48 h
Protocol: as §1

CCRF-CEM = details: Leukemia, 10 μM, 48 h
Protocol: as §1

EKVX = details: Non-Small Cell Lung Cancer, 10 μM, 48 h
Protocol: as §1

HCT-15 = details: Colon Cancer, 10 μM, 48 h
Protocol: as §1

SF-539 = details: CNS Cancer, 10 μM, 48 h
Protocol: as §1

COLO 205 = details: Colon Cancer, 10 μM, 48 h
Protocol: as §1

HOP-92 = details: Non-Small Cell Lung Cancer, 10 μM, 48 h
Protocol: as §1

UO-31 = details: Renal Cancer, 10 μM, 48 h
Protocol: as §1

MCF7 = details: Breast Cancer, 10 μM, 48 h
Protocol: as §1

SR = details: Leukemia, 10 μM, 48 h
Protocol: as §1

OVCAR-8 = details: Ovarian Cancer, 10 μM, 48 h
Protocol: as §1

K-562 = details: Leukemia, 10 μM, 48 h
Protocol: as §1

A498 = details: Renal Cancer, 10 μM, 48 h
Protocol: as §1

MDA-MB-231/ATCC = details: Breast Cancer, 10 μM, 48 h
Protocol: as §1

ACHN = details: Renal Cancer, 10 μM, 48 h
Protocol: as §1

SF-268 = details: CNS Cancer, 10 μM, 48 h
Protocol: as §1

OVCAR-4 = details: Ovarian Cancer, 10 μM, 48 h
Protocol: as §1

LOX IMVI = details: Melanoma, 10 μM, 48 h
Protocol: as §1

HCT-116 = details: Colon Cancer, 10 μM, 48 h
Protocol: as §1

| SMILES | Growth Percent (T-47D) | Growth Percent (MDA-MB-435) | Growth Percent (HOP-62) | Growth Percent (NCI-H460) | Growth Percent (SK-MEL-2) | Growth Percent (RPMI-8226) | Growth Percent (PC-3) | Growth Percent (NCI-H226) | Growth Percent (NCI-H23) | Growth Percent (U251) | Growth Percent (SNB-19) | Growth Percent (SF-295) | Growth Percent (MOLT-4) | Growth Percent (HT29) | Growth Percent (CCRF-CEM) | Growth Percent (EKVX) | Growth Percent (HCT-15) | Growth Percent (SF-539) | Growth Percent (COLO 205) | Growth Percent (HOP-92) | also measured |
| --- | --- | --- | --- | --- | --- | --- | --- | --- | --- | --- | --- | --- | --- | --- | --- | --- | --- | --- | --- | --- | --- |
| CC1CCC2C(C)C(OCc3ccc(C(=O)NN=Cc4ccccc4O)o3)OC3OC4(C)CCC1C32OO4 (stereo not drawn) [ART-Furan-Sal, N′-(2-hydroxybenzylidene)-5-(dihydroxyartemisinin-methyl)-furan-2-carbohydrazide] | 10.28% | 25.70% | 12.94% | −26.28% | −27.21% | 13.00% | 28.01% | 13.93% | 17.54% | 12.24% | 25.11% | 12.70% | −23.49% | 22.40% | −23.63% | 25.37% | 30.86% | −11.48% | 18.60% | 37.02% | Growth Percent (UO-31): −35.28%; Growth Percent (MCF7): 1.18%; Growth Percent (SR): −29.47%; Growth Percent (OVCAR-8): 17.07%; Growth Percent (K-562): 8.79%; Growth Percent (A498): 12.88%; Growth Percent (MDA-MB-231/ATCC): 31.58%; Growth Percent (ACHN): 7.80%; Growth Percent (SF-268): −0.43%; Growth Percent (OVCAR-4): 12.86%; Growth Percent (LOX IMVI): 0.03%; Growth Percent (HCT-116): 13.81% |
| CC1CCC2C(C)C(OCCn3cc(C(=O)NN=Cc4ccccc4O)nn3)OC3OC4(C)CCC1C32OO4 (stereo not drawn) [ART-Triazole-Sal, N′-(2-hydroxybenzylidene)-1-(dihydroxyartemisinin-ethyl)-1H-1,2,3-triazole-4-carbohydrazide] | 37.45% | 35.26% | 24.18% | 2.83% | −15.86% | 18.69% | 38.28% | 26.98% | 30.70% | 24.89% | 45.73% | 24.32% | −0.29% | 31.44% | −14.86% | 35.04% | 34.01% | 14.19% | 26.05% | 44.42% | Growth Percent (UO-31): −28.61%; Growth Percent (MCF7): 13.62%; Growth Percent (SR): 0.08%; Growth Percent (OVCAR-8): 25.82%; Growth Percent (K-562): 17.31%; Growth Percent (A498): 50.94%; Growth Percent (MDA-MB-231/ATCC): 52.54%; Growth Percent (ACHN): 15.69%; Growth Percent (SF-268): 21.15%; Growth Percent (OVCAR-4): 15.89%; Growth Percent (LOX IMVI): 6.87%; Growth Percent (HCT-116): 20.87% |
| CC1CCC2C(C)C(OCc3ccc(C(=O)NN=Cc4ccccc4O)nc3)OC3OC4(C)CCC1C32OO4 (stereo not drawn) [ART-Pyr-Sal, N′-(2-hydroxybenzylidene)-5-(dihydroxyartemisinin-methyl)-2-pyridine carbohydrazide] | 12.21% | 30.18% | 20.73% | 0.12% | −23.42% | 13.76% | 21.62% | 1.83% | 16.47% | 14.70% | 20.71% | 4.52% | 10.13% | 29.61% | −17.26% | 32.52% | 21.89% | −29.69% | 30.63% | 30.70% | Growth Percent (UO-31): 0.04%; Growth Percent (MCF7): 13.61%; Growth Percent (SR): −30.14%; Growth Percent (OVCAR-8): 8.81%; Growth Percent (K-562): 26.88%; Growth Percent (A498): 5.27%; Growth Percent (MDA-MB-231/ATCC): 50.08%; Growth Percent (ACHN): 10.64%; Growth Percent (SF-268): 12.40%; Growth Percent (OVCAR-4): 23.04%; Growth Percent (LOX IMVI): 2.20%; Growth Percent (HCT-116): 18.34% |
